Active and inactive are the calls of the source.
Columns and labels:
[1] = viability of HCT116 lacking mutant beta-catenin – cell-based, human colon tumor, dose response (AID 1045); assay type: functional;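 also: HCT116 colon tumor cells with beta catenin knocked out; cells exposed to compound for 60 hours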
[2] = fluconazole-exposed Candida albicans growth modulators – fluorescence, retest, confirmation (AID 2467); assay type: functional, cell-based
[3] = target: T1, DNA repair and recombination protein RAD54-like (Homo sapiens, UniProt Q92698); test: RAD54 Holliday junction migration blockers – biochemical, fluorescence, cherry-picked samples, dose series, confirmation (AID 651657); assay type: functional
T1 sequence (Q92698 whole entry): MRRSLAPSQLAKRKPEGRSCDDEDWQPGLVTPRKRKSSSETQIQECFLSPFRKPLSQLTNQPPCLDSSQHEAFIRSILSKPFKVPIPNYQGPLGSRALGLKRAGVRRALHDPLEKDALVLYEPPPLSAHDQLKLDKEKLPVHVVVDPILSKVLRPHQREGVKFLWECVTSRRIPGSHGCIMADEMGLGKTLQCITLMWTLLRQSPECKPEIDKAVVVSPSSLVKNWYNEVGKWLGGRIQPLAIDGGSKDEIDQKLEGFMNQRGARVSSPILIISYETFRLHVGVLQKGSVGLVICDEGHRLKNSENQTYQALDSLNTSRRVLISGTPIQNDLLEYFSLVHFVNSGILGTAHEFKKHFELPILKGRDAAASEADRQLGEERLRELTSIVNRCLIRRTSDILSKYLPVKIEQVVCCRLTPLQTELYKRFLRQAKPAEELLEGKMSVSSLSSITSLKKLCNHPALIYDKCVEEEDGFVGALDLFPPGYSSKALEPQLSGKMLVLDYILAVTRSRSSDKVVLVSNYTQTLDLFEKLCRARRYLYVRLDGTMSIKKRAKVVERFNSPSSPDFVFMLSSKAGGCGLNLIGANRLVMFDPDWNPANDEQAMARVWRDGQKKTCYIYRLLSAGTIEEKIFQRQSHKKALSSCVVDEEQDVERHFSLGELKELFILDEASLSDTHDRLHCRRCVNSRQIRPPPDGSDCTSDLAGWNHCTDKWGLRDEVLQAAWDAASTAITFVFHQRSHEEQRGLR

[4] = NIH-3T3 fibroblast cytotoxicity, dose response, cytotoxicity control, cell-based, fluorescence, Alamar Blue, secondary assay (AID 2327); assay type: functional;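 also: NIH-3T3 mouse fibroblasts cultured with fluconazole at 8 µg/mL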
[5] = Trypanosoma cruzi growth suppression in host cells – NIH3T3 host cells, beta-gal luminescence, confirmation (AID 2044); assay type: functional, cell-based;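 also: intracellular parasites grown in NIH/3T3 mouse fibroblasts as host cells; luminescent beta-galactosidase reporter signal from transgenic T. cruzi replicating inside host cells; inhibitors lower the luminescence signal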
CAAX prenyl protease 1 = target: T2, CAAX prenyl protease 1 (Saccharomyces cerevisiae S288c, UniProt P47154); test: yeast CAAX protease Ste24 inhibition – biochemical, S. cerevisiae, plate reader, cherry-pick, dose response (AID 488815)
T2 sequence (P47154 whole entry): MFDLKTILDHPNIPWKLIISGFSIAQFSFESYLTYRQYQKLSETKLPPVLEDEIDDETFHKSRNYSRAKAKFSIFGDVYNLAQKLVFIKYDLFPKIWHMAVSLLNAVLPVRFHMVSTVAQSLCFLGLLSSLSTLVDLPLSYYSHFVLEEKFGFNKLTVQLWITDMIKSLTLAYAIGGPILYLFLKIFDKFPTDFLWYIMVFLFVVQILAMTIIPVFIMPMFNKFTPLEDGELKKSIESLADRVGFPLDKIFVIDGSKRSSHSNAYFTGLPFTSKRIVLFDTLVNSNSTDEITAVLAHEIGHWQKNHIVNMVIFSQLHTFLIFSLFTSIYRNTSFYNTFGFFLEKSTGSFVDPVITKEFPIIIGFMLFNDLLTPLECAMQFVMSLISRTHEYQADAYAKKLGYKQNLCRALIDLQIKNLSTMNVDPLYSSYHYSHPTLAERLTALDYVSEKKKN

[6] = NIH3T3 cell viability loss – ATP luminescence, mouse fibroblasts, counter-screen, dose response (AID 2010); assay type: functional, cell-based;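 also: cells exposed to compound for about 90 hours before reading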
[7] = viability of PTEN-deleted HCT116 cells – cell-based, HCT116 PTEN knockout, dose response (AID 1047); assay type: functional;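 also: HCT116 colon tumor cells with PTEN knocked out; cells exposed to compound for 60 hours before readout; potency for loss of cell viability measured by luminescence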
Exodeoxyribonuclease V = target: T3, Exodeoxyribonuclease V (Escherichia coli (strain K12), UniProt P04993+P07648+P08394); test: RecBCD inhibition via phage-restricted bacterial growth – absorbance, V66 E. coli, mutant T4 phage, counter-screen for AddAB inhibitor project, dose response (AID 492957); assay type: functional, cell-based, Escherichia coli str. K-12 substr. MG1655
T3 sequence (P04993 whole entry): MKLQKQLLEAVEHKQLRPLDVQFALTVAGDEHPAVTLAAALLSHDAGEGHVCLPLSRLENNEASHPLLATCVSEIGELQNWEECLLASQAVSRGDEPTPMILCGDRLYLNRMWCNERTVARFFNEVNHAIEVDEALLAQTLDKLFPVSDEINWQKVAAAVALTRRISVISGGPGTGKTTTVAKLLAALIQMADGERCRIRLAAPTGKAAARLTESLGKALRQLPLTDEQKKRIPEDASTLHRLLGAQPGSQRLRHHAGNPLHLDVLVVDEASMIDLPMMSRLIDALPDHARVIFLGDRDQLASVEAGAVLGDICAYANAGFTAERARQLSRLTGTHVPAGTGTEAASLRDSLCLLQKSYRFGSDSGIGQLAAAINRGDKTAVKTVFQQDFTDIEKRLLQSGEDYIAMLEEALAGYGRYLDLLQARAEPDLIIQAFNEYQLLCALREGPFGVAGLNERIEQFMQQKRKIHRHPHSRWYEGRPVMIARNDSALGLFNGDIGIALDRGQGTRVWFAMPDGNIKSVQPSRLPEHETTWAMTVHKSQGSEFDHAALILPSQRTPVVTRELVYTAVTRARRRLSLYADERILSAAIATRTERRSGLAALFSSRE
T3 sequence (P07648 whole entry): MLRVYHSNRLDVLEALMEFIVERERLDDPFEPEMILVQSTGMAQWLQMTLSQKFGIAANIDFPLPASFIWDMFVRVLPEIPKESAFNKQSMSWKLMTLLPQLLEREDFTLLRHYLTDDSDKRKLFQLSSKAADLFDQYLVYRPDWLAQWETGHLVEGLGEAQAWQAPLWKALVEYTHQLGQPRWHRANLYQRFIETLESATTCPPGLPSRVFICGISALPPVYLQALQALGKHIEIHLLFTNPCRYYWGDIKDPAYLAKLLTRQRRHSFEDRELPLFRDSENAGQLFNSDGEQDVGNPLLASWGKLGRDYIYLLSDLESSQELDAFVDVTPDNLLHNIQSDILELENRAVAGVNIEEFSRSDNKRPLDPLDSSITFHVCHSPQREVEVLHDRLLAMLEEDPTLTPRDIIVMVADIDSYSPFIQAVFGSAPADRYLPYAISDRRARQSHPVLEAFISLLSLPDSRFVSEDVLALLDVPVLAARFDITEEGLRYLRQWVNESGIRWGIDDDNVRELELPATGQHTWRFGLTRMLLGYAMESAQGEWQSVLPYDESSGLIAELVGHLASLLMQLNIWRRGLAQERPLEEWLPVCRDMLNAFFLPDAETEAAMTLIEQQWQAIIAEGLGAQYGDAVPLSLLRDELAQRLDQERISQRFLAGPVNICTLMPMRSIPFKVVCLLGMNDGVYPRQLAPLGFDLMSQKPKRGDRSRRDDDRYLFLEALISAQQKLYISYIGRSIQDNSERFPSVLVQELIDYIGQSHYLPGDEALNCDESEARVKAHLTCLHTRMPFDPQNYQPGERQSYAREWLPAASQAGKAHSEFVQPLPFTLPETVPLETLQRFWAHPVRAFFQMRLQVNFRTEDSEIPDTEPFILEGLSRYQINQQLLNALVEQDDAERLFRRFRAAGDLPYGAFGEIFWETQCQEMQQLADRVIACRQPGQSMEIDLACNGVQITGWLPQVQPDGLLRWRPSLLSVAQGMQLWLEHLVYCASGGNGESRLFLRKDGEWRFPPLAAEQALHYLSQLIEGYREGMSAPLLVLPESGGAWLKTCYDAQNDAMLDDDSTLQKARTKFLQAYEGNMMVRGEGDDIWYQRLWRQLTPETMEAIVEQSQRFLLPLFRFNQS
T3 sequence (P08394 whole entry): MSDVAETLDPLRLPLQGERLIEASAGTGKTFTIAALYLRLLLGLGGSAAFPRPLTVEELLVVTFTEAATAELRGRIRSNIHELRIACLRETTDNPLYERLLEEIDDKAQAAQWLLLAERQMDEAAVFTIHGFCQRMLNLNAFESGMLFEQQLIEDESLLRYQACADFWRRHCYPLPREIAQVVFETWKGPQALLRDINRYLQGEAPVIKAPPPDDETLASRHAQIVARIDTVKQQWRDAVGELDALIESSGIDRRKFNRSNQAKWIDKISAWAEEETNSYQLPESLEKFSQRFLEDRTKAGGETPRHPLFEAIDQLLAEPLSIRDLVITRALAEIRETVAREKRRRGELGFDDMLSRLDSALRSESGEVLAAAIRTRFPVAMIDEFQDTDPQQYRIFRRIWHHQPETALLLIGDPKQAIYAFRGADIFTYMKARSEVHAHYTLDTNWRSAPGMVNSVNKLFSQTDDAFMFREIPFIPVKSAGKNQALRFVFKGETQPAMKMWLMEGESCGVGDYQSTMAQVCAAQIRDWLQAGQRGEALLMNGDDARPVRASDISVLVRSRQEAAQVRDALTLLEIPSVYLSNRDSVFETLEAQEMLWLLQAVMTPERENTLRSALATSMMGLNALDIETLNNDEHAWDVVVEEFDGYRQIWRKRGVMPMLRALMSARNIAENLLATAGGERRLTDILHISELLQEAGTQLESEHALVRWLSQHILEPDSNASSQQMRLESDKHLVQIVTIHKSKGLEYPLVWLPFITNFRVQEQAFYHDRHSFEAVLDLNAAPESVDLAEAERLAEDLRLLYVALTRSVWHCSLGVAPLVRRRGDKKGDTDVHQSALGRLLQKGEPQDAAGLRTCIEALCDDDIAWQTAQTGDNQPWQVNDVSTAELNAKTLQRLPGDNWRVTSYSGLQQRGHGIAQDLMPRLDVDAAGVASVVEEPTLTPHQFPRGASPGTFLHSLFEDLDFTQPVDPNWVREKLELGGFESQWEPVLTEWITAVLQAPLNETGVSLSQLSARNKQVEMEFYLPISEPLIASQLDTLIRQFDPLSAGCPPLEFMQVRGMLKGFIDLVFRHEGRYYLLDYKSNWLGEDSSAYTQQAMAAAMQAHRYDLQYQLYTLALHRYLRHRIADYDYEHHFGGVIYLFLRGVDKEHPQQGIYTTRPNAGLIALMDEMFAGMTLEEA

[8] = Counterscreen for AddAB inhibitors: absorbance-based bacterial cell-based high throughput dose response assay for inhibitors of bacterial viability. [Related pubchem assays (depositor defined):AID435030, AID449728, AID449731, AID488942, AID488955, AID488956]; assay type: functional
cells [9] = assay type: functional, cell-based
INS1 = test: INS-1E survival protection against cytokine death – cell-based, luminescence, retest, dose response (AID 449756); assay type: functional; settings: Rattus norvegicus;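 also: cell death triggered by IL-1 beta plus TNF-alpha plus IFN-gamma mixture; protective hits raise ATP signal compared with cytokine alone wells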
[10] = non-specific 3'UTR reporter inhibition in Clone20-Shn3RL – cell-based, Renilla luciferase, cherry-picked, counter-screen for Shn3 inhibitor project, dose response (AID 624133); assay type: functional
HEK293 = test: EBV LMP1 TES2 canonical NF-kB signalling blockers – cell-based, HEK293, luciferase, cherry-pick, dose response (AID 588343); assay type: functional; settings: Homo sapiens
cells [11] = assay type: functional, cell-based; remark: listed apart in the source
[12] = loss of viability in HepG2 cells – cell-based, CellTiter-Glo, cherry-picked, cytotoxicity control for Shn3 inhibitor project, dose response (AID 624134); assay type: functional
[13] = reduction of Shn3 3'UTR-driven luciferase in osteoblasts – cell-based, Clone20 osteoblasts, firefly luciferase, cherry-picked, dose response (AID 624132); assay type: functional;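 also: firefly luciferase luminescence from reporter carrying the Shn3 3'UTR in osteoblasts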
[14] = target: Heat shock protein HSP 90-alpha (Homo sapiens, UniProt P07900); assay type: functional, organism-based

Row | SMILES | EC50 [1] | EC50 [2] | AC50 [3] | EC50 [4] | EC50 [5] | AC50 (CAAX prenyl protease 1) | EC50 [6] | EC50 [7] | IC50 (Exodeoxyribonuclease V) | IC50 [8] | EC50 (cells [9]) | AC50 (INS1) | AC50 [10] | AC50 (HEK293) | EC50 (cells [11]) | AC50 [12] | AC50 [13] | AC50 [14]
1 | CCc1nc(Nc2ccncc2)c2oc3ccccc3c2n1 | 6.45 µM (active) | 2.48 µM (active) | 15.5 µM (active) | > 160 µM (inactive) | 0.6 µM (active) | 5.23 µM (active) | > 60 µM (not active) | 6.58 µM (active) | – | – | – | – | – | – | – | – | – | –
2 | COc1ccccc1/C=C1\SC(=S)N(CCC(=O)NNC(=O)c2ccccc2O)C1=O | – | – | – | – | – | – | – | – | > 119 µM (inactive) | > 119 µM (inactive) | – | – | – | – | – | – | – | –
3 | CCC(=O)NC(c1ccc(Cl)cc1Cl)c1ccc2cccnc2c1O (centres undefined) | – | 0.354 µM (active) | – | 3.86 µM (inconclusive) | 0.296 µM (active) | – | 0.434 µM (active) | – | > 119 µM (inactive) | > 119 µM (inactive) | 7.3 µM (active) | 0.478 µM (active) | 1.33 µM (active) | 4.55 µM (active) | > 350 µM (not active) | 28.8 µM (active) | 1.19 µM (active) | 3.22 µM (active)

— ChEMBL document CHEMBL1201862, “PubChem BioAssay data set” (2004)
